According to patent publication US20240025907A1, “QUINAZOLINE PAN-KRas INHIBITORS” (Mirati Therapeutics, Inc., priority 2022, published 2024):
Like-named read-outs stand apart in the source and are kept apart here.

How the values were obtained:
[1] = target: T1, KRas^G12S (Homo sapiens, UniProt P01116, G12S); experiment: KRas TR-FRET tracer displacement binding assay, G12S; settings: 60-minute incubation
T1 construct: Biotinylated KRas (corresponding to amino acids 1-169, produced at Accelegan Inc.); biotin (biotinylated); purchased Accelegan Inc
Description: (§1) KRas^WT, KRas^G12A, KRas^G12C, KRas^G12D, KRas^G12R, KRas^G12S, KRas^G12V, KRas^G13D, or KRas^Q61H was used in the assay.
(§2) The ability of a compound to bind to KRas was measured using a TR-FRET displacement assay. Biotinylated KRas (corresponding to amino acids 1-169, produced at Accelegan Inc.) was incubated with custom made Cy5 labelled tracer, terbium streptavidin (Cisbio Inc.) and compound (1% DMSO final) in buffer (50 mM HEPES, pH 7.5, 5 mM MgCl2, 0.005% Tween-20 and 1 mM DTT). After a 60-minute incubation at room temperature, the reaction was measured using a BMG LABTECH CLARIO star Plus via TR-FRET.

[2] = target: T2, KRas^G12C (Homo sapiens, UniProt P01116, G12C); experiment: KRas TR-FRET tracer displacement binding assay, G12C; settings: 60-minute incubation
T2 construct: Biotinylated KRas (corresponding to amino acids 1-169, produced at Accelegan Inc.); biotin (biotinylated); purchased Accelegan Inc
Description: as §1, §2

[3] = test system: KRas-mediated Phosphorylation of ERK in AsPC-1 cells; experiment: Cisbio HTRF pERK assay, AsPC-1 cells; assay type: cell-based; settings: 3 hrs compound, read-out: Inhibition (HTRF IC50 nM) of KRas-mediated Phosphorylation of ERK, AsPC-1
[4] = test system: KRas-mediated Phosphorylation of ERK in H358 cells; experiment: Cisbio HTRF pERK assay, H358 cells; assay type: cell-based; settings: H358 cells, 3 hrs compound, read-out: Inhibition (HTRF IC50 nM) of KRas-mediated Phosphorylation of ERK, H358
[5] = target: T3, KRas^WT (Homo sapiens, UniProt P01116); experiment: KRas TR-FRET tracer displacement binding assay, WT; settings: 60-minute incubation
T3 construct: Biotinylated KRas (corresponding to amino acids 1-169, produced at Accelegan Inc.); biotin (biotinylated); purchased Accelegan Inc
Description: as §1, §2

[6] = test system: KRas-mediated Phosphorylation of ERK in A549 cells; experiment: Cisbio HTRF pERK assay, A549 cells; assay type: cell-based; settings: A549 cells, 3 hrs compound, read-out: Inhibition (HTRF IC50 nM) of KRas-mediated Phosphorylation of ERK, A549
[7] = target: T4, KRas^G12D (Homo sapiens, UniProt P01116, G12D); experiment: KRas TR-FRET tracer displacement binding assay, G12D; settings: 60-minute incubation
T4 construct: Biotinylated KRas (corresponding to amino acids 1-169, produced at Accelegan Inc.); biotin (biotinylated); purchased Accelegan Inc
Description: as §1, §2

[8] = target: T5, KRas^G12V (Homo sapiens, UniProt P01116, G12V); experiment: KRas TR-FRET tracer displacement binding assay, G12V; settings: 60-minute incubation
T5 construct: Biotinylated KRas (corresponding to amino acids 1-169, produced at Accelegan Inc.); biotin (biotinylated); purchased Accelegan Inc
Description: as §1, §2

[9] = test system: KRas-mediated Phosphorylation of ERK in H727 cells; experiment: Cisbio HTRF pERK assay, H727 cells; assay type: cell-based; settings: 3 hrs compound, read-out: Inhibition (HTRF IC50 nM) of KRas-mediated Phosphorylation of ERK, H727
[10] = test system: KRas-mediated Phosphorylation of ERK in H460 cells; experiment: Cisbio HTRF pERK assay, H460 cells; assay type: cell-based; settings: H460 cells, 3 hrs compound, read-out: Inhibition (HTRF IC50 nM) of KRas-mediated Phosphorylation of ERK, H460
[11] = test system: KRas-mediated Phosphorylation of ERK in PSN1 cells; experiment: Cisbio HTRF pERK assay, PSN1 cells; assay type: cell-based; settings: 3 hour compound, read-out: Inhibition (HTRF IC50 nM) of KRas-mediated Phosphorylation of ERK, PSN1
Description: Inhibition of KRas Phosphorylation of ERK (HTRF) by Exemplary Compounds of Formula (I) • Cisbio HTRF Advanced pERK Assay Catalog #64AERPEH • Cell: MKN1, PSN1 • Procedure: • Day 1: Seed 6,000 cells/well −25 μl/well in 384-well white solid bottom plate; RPM1_10% FBS.

[12] = test system: KRas-mediated Phosphorylation of ERK in HCT116 cells; experiment: Cisbio HTRF pERK assay, HCT116 cells; assay type: cell-based; settings: HCT116 cells, 3 hrs compound, read-out: Inhibition (HTRF IC50 nM) of KRas-mediated Phosphorylation of ERK, HCT116

T3 sequence (P01116 1-169 isoform P01116-2): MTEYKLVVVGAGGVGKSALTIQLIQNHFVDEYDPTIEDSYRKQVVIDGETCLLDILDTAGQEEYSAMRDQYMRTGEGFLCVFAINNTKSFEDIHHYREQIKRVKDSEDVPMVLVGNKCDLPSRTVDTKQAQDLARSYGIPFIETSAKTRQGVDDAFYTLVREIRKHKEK
T5 sequence (P01116 1-169 isoform P01116-2 G12V): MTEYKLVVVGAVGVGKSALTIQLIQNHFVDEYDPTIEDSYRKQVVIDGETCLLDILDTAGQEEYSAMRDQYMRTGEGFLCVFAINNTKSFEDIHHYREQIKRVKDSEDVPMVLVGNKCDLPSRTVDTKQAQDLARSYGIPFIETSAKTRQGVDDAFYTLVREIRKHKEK
T2 sequence (P01116 1-169 isoform P01116-2 G12C): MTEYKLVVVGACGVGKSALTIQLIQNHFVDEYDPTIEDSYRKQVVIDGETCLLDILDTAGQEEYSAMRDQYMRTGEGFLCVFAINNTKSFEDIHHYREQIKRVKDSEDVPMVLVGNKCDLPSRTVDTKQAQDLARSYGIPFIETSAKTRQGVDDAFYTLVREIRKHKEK
T4 sequence (P01116 1-169 isoform P01116-2 G12D): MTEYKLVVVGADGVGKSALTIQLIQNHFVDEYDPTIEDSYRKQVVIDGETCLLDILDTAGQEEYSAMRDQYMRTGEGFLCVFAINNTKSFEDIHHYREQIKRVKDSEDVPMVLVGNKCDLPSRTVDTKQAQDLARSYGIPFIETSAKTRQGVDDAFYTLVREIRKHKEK
T1 sequence (P01116 1-169 isoform P01116-2 G12S): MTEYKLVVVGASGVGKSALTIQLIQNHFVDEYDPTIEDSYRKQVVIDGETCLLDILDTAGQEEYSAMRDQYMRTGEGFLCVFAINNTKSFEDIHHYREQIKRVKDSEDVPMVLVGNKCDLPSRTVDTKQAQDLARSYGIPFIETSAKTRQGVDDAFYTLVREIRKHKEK

IC50 [1] | IC50 [2] | IC50 [3] | IC50 [4] | IC50 [5] | IC50 [6] | IC50 [7] | IC50 [8] | IC50 [9] | IC50 ([3]; Homo sapiens, ASPC1, 3 h) | IC50 ([4]; Homo sapiens, NCI-H358, 3 h) | IC50 ([6]; Homo sapiens, A549, 3 h) | IC50 ([10]; Homo sapiens, NCI-H460, 3 h) | IC50 ([9]; Homo sapiens, NCI-H727, 3 h) | IC50 ([11]; Homo sapiens, PSN1, 3 h) | IC50 ([12]; Homo sapiens, HCT-116, 3 h) | Compound | IC50 [10] | IC50 [11] | IC50 [12]
6 nM | 6 nM | 230 nM | 22 nM | 6 nM | 76 nM | 14 nM | 11 nM | 357 nM | – | – | – | – | – | – | – | N#Cc1c(N)sc2c(F)ccc(-c3c(Cl)cc4c(N5CCCOC6CC65)nc(OC[C@@]56CCCN5C[C@H](F)C6)nc4c3F)c12 (single isomer, unassigned) [Example 212] | – | – | –
275 nM | 184 nM | – | – | 251 nM | – | 959 nM | 75 nM | – | – | – | – | – | – | – | – | CC1CN(C)CCCN1c1nc(N(C)C)c2cc(Cl)c(-c3ccc(F)c4sc(N)c(C#N)c34)c(F)c2n1 (stereo not shown) [Example 217, 2-amino-4-(6-chloro-2-(2,4-dimethyl-1,4-diazepan-1-yl)-4-(dimethylamino)-8-fluoroquinazolin-7-yl)-7-fluorobenzo[b]thiophene-3-carbonitrile] | – | – | –
5 nM | 8 nM | 761 nM | 160 nM | 11 nM | 398 nM | 9 nM | 4 nM | 767 nM | – | – | – | – | – | – | – | N#Cc1c(N)sc2c(F)ccc(-c3c(Cl)cc4c(N5CCCOC6CC65)nc(OC[C@@]56CCCN5C[C@H](F)C6)nc4c3F)c12 (single isomer, unassigned) [Example 213] | – | – | –
– | – | – | – | – | – | – | – | – | 1740 nM | 71 nM | 574 nM | 690 nM | 554 nM | 7120 nM | 985 nM | N#Cc1c(N)sc2c(F)ccc(-c3c(Cl)cc4c(NCCO)nc(OC[C@@]56CCCN5C[C@H](F)C6)nc4c3F)c12 [Example 205, 2-amino-4-(6-chloro-8-fluoro-2-(((2R,7aS)-2-fluorotetrahydro-1H-pyrrolizin-7a(5H)-yl)methoxy)-4-((2-hydroxyethyl)amino)quinazolin-7-yl)-7-fluorobenzo[b]thiophene-3-carbonitrile] | – | – | –
– | – | – | – | – | – | – | – | – | 501 nM | 82 nM | 307 nM | 306 nM | 226 nM | 4790 nM | 661 nM | CN(c1nc(OC[C@@]23CCCN2C[C@H](F)C3)nc2c(F)c(-c3ccc(F)c4sc(N)c(C#N)c34)c(Cl)cc12)C1CC1 [Example 203, 2-amino-4-(6-chloro-4-(cyclopropyl(methyl)amino)-8-fluoro-2-(((2R,7aS)-2-fluorotetrahydro-1H-pyrrolizin-7a(5H)-yl)methoxy)quinazolin-7-yl)-7-fluorobenzo[b]thiophene-3-carbonitrile] | – | – | –

Second part, the compound before the results:

Compound | IC50 [1] | IC50 [2] | IC50 [3] | IC50 [4] | IC50 [5] | IC50 [6] | IC50 [7] | IC50 [8] | IC50 [9] | IC50 ([3]; Homo sapiens, ASPC1, 3 h) | IC50 ([4]; Homo sapiens, NCI-H358, 3 h) | IC50 ([6]; Homo sapiens, A549, 3 h) | IC50 ([10]; Homo sapiens, NCI-H460, 3 h) | IC50 ([9]; Homo sapiens, NCI-H727, 3 h) | IC50 ([11]; Homo sapiens, PSN1, 3 h) | IC50 ([12]; Homo sapiens, HCT-116, 3 h) | IC50 [10] | IC50 [11] | IC50 [12]
CN(C)C(=O)n1cc2c(n1)CCCN(c1nc(OC[C@@]34CCCN3C[C@H](F)C4)nc3c(F)c(-c4ccc(F)c5sc(N)c(C#N)c45)c(Cl)cc13)C2 (atropisomer, axis not shown; (aS)) [Example 186, 5-((S)-7-(2-amino-3-cyano-7-fluorobenzo[b]thiophen-4-yl)-6-chloro-8-fluoro-2-(((2R,7aS)-2-fluorotetrahydro-1H-pyrrolizin-7a(5H)-yl)methoxy)quinazolin-4-yl)-N,N-dimethyl-5,6,7,8-tetrahydropyrazolo[4,3-c]azepine-2(4H)-carboxamide] | – | – | 162 nM | 98 nM | – | 382 nM | – | – | 202 nM | – | – | – | – | – | – | – | 341 nM | > 10000 nM | 670 nM
N#Cc1c(N)sc2c(F)ccc(-c3c(Cl)cc4c(N5C=C(CCO)CCCC5)nc(OC[C@@]56CCCN5C[C@H](F)C6)nc4c3F)c12 [Example 190, 2-amino-4-(6-chloro-8-fluoro-2-(((2R,7aS)-2-fluorotetrahydro-1H-pyrrolizin-7a(5H)-yl)methoxy)-4-(6-(2-hydroxyethyl)-2,3,4,5-tetrahydro-1H-azepin-1-yl)quinazolin-7-yl)-7-fluorobenzo[b]thiophene-3-carbonitrile] | – | – | – | – | – | – | – | – | – | 627 nM | 330 nM | 525 nM | 347 nM | 870 nM | 5570 nM | 596 nM | – | – | –
N#Cc1c(N)sc2c(F)ccc(-c3c(Cl)cc4c(N5CCCCC(=O)C5)nc(OC[C@@]56CCCN5C[C@H](F)C6)nc4c3F)c12 [Example 191, 2-amino-4-(6-chloro-8-fluoro-2-(((2R,7aS)-2-fluorotetrahydro-1H-pyrrolizin-7a(5H)-yl)methoxy)-4-(3-oxoazepan-1-yl)quinazolin-7-yl)-7-fluorobenzo[b]thiophene-3-carbonitrile] | – | – | – | – | – | – | – | – | – | 8 nM | 2 nM | 11 nM | 10 nM | 12 nM | 798 nM | 11 nM | – | – | –
CC(Oc1nc(N(C)C)c2cc(F)c(-c3ccc(F)c4sc(N)c(C#N)c34)c(F)c2n1)C12CCCN1CCC2 (single isomer, unassigned; isomer 1) [Example 177, 2-amino-4-(4-(dimethylamino)-6,8-difluoro-2-(1-(tetrahydro-1H-pyrrolizin-7a(5H)-yl)ethoxy)quinazolin-7-yl)-7-fluorobenzo[b]thiophene-3-carbonitrile (isomer 1)] | 42 nM | 36 nM | – | – | 40 nM | – | 107 nM | 18 nM | – | – | – | – | – | – | – | – | – | – | –
C=C1CN2CCC[C@]2(COc2nc(N3CC4CCC(C3)N4)c3cc(Cl)c(-c4ccc(F)c5sc(N)c(C#N)c45)c(F)c3n2)C1 [Example 182, (R)-4-(4-((1R,5S)-3,8-diazabicyclo[3.2.1]octan-3-yl)-6-chloro-8-fluoro-2-(((R)-2-methylenetetrahydro-1H-pyrrolizin-7a(5H)-yl)methoxy)quinazolin-7-yl)-2-amino-7-fluorobenzo[b]thiophene-3-carbonitrile] | – | – | 4 nM | 136 nM | – | 377 nM | – | – | 1390 nM | – | – | – | – | – | – | – | 207 nM | 1820 nM | 114 nM
N#Cc1c(N)sc2c(F)ccc(-c3c(Cl)cc4c(NCc5cn[nH]c5)nc(OC[C@@]56CCCN5C[C@H](F)C6)nc4c3F)c12 [Example 199, 4-(4-(((1H-pyrazol-4-yl)methyl)amino)-6-chloro-8-fluoro-2-(((2R,7aS)-2-fluorotetrahydro-1H-pyrrolizin-7a(5H)-yl)methoxy)quinazolin-7-yl)-2-amino-7-fluorobenzo[b]thiophene-3-carbonitrile] | – | – | – | – | – | – | – | – | – | 4200 nM | 232 nM | 1180 nM | 462 nM | 4090 nM | 3860 nM | 889 nM | – | – | –
CC(Oc1nc(N(C)C)c2cc(F)c(-c3ccc(F)c4sc(N)c(C#N)c34)c(F)c2n1)C12CCCN1CCC2 (single isomer, unassigned; isomer 2) [Example 178, 2-amino-4-(4-(dimethylamino)-6,8-difluoro-2-(1-(tetrahydro-1H-pyrrolizin-7a(5H)-yl)ethoxy)quinazolin-7-yl)-7-fluorobenzo[b]thiophene-3-carbonitrile (isomer 2)] | 28 nM | 20 nM | – | – | 17 nM | – | 92 nM | 10 nM | – | – | – | – | – | – | – | – | – | – | –
